From US20180153830A1, “SELECTIVE INHIBITORS OF UNDIFFERENTIATED CELLS” (Yissum Research Development Company of the Hebrew …, priority 2012, published 2018)

How the values were obtained:
Assay type in all cases: cell-based
[1] = test system: BJ-iPS28 induced pluripotent stem cells; assay: CellTiter-Glo luminescent cell viability screen, BJ-iPS28; settings: Homo sapiens; for EC50: 24 h; for inhibition at 20 µM: pluripotent stem cells
Experimental: (§1) 5,000 CSES2 cells were plated in 50 μl per well of mTeSR1 medium into black 384-well clear-bottom plates (Falcon BD) pre-coated with Matrigel™ using WellMate cell dispenser (Matrix, Hudson, N.H.). 24 hours after plating, medium was replaced with 25 μl of fresh medium and 25 μl of 40 μM compound medium solutions in 1% DMSO from the intermediate compound dilution plates. The plates were incubated at 37° C., in a 5% CO2 atmosphere, for the entire duration of the screen, apart from the time required for liquid handling. Cell viability was determined 24 hours after compound treatment using CellTiter-Glo® luminescent cell viability assay kits. 50 μl of CellTiter-Glo® reagent was added to each well of the assay plates and fully mixed. After incubation at room temperature for 15 minutes, 25 μl of liquid was transferred from each well into a white opaque-bottom 384-well plate (PerkinElmer), and luminescence was measured using an EnVision® plate reader (PerkinElmer). 16 neutral control wells (0.5% DMSO) and 8 positive control wells (5 μM amsacrine hydrochloride were used to normalize the compound effect. All liquid transfer steps were handled with a Biomek® FXP Laboratory Automation Workstation (Beckman Coulter, Fullerton, Calif.) and Muitidrop Combi liquid dispenser (Thermo Fisher, Waltham, Mass.). An Assay Analyzer (Genedata, Basel, Switzerland) was used for data pattern correction and calculation. The Spotfire software (Spotfire, Somerville, Mass.) was used for data illustration.
696 confirmed hits from the confirmation screen were tested for profiling in a panel of 13 different cell types, using the same screening protocol described above (except in the case of embryonic stem cell-derived neural stem cells (NSCs) and mesenchymal stem cells (MSCs), for which the protocol is described below). As discussed below, compounds were tested either in dose-dependent multiple concentration manner or in single concentration manner. CSES2 and CSES2-SO2/3 cell lines and the early endodermal progenitors derived from this cell line (CSES2-SO2/3-differentiated) were screened at 8 concentrations ranging from 50 μM to 23 nM with 1:3 serial dilution steps. […] Cardiomyocytes were screened in one concentration of 20 μM. HeLa and NTERA-2 cell lines were screened in duplicates of 20 μM. Kelly and Huh-7 were screened in triplicates of 20 μM. Hepatocytes were screened in duplicates of 20 μM in the original 96-well plates in which the cells arrived (40,000 cells per well, in 160 μl medium, the volumes of all reagents involved were adjusted accordingly). MSCs and NSCs were screened in duplicates of 12.5 μM.
(§2) The raw intensity data for each well were background-corrected by subtraction of the median intensities across all positive control wells on the same plate, and used to calculate the inhibitory effect of each compound per cell line. A Genedata Assay Analyzer and Condoseo were used for data pattern correction, calculation and IC50 curve fitting. A Z′ factor was determined for each plate.
The effect of the selected compounds on human iPS cells was then determined. […]

Huh7 cells = assay: CellTiter-Glo counter-screen, Huh7; settings: Homo sapiens, Huh-7, cancer cells
Experimental: The hepatocarcinoma cell line Huh-7 was cultured in a DMEM/F12 (1:1) medium, supplemented with 10% FBS, penicillin (50 U/ml) and streptomycin (50 μg/ml).
(§3) 696 confirmed hits from the confirmation screen were tested for profiling in a panel of 13 different cell types, using the same screening protocol described above (except in the case of embryonic stem cell-derived neural stem cells (NSCs) and mesenchymal stem cells (MSCs), for which the protocol is described below). As discussed below, compounds were tested either in dose-dependent multiple concentration manner or in single concentration manner. CSES2 and CSES2-SO2/3 cell lines and the early endodermal progenitors derived from this cell line (CSES2-SO2/3-differentiated) were screened at 8 concentrations ranging from 50 μM to 23 nM with 1:3 serial dilution steps. BJ-iPS28 cell line and the BJ fibroblasts from which it was derived were screened at 6 concentrations ranging from 50 μM to 200 nM with 1:3 serial dilution steps. Cardiomyocytes were screened in one concentration of 20 μM. HeLa and NTERA-2 cell lines were screened in duplicates of 20 μM. Kelly and Huh-7 were screened in triplicates of 20 μM. Hepatocytes were screened in duplicates of 20 μM in the original 96-well plates in which the cells arrived (40,000 cells per well, in 160 μl medium, the volumes of all reagents involved were adjusted accordingly). MSCs and NSCs were screened in duplicates of 12.5 μM.
(§4) In order to identify highly-selective cytotoxic inhibitors of hPSCs, the 696 cytotoxic inhibitors of hPSCs identified as described in Example 1 were counter-screened as described in the Materials and Methods section against other cell types, representative of all germ layers and developmental stages. Importantly, many of these cell types were differentiated from human ES or iPS cells. The screened cell types included ES-derived neural stem cells (NSCs), ES-derived mesenchymal stem cells (MSCs), ES-derived endodermal progenitor cells, ES-derived hepatocytes, iPS-derived cardiomyocytes, iPS-derived fibroblasts of origin (BJ fibroblasts), and three cancer cell lines: neuroblastoma (Kelly), cervical cancer (HeLa) and hepatocarcinoma (Huh7). The cell types and their relationship to stem cells are depicted schematically in FIG. 14.

[2] = test system: neuroblastoma (Kelly) cells; assay: CellTiter-Glo counter-screen, Kelly; settings: Homo sapiens, cancer cells
Experimental: The neuroblastoma cell line Kelly was cultured in RPMI-1640 medium, supplemented with 15% fetal bovine serum (FBS), penicillin (50 U/ml) and streptomycin (50 μg/ml).
as §3, §4

BJ-fibroblasts = assay: CellTiter-Glo counter-screen, BJ-fibroblasts; settings: Homo sapiens; for EC50: 24 hours, differentiated cells
Experimental: (§5) The cervical carcinoma cell line HeLa, teratocarcinoma cell line NTERA-2, and immortalized BJ fibroblast cell line, were cultured in DMEM supplemented with 10% FBS, penicillin (50 U/ml) and streptomycin (50 μg/ml).
as §3, §4
In addition, the identified compounds were screened at 6 concentrations using the BJ-fibroblasts from which the iPS line BJ-iPS28 had been derived, and reliable EC50 values were thereby calculated for both the iPS cells and for their somatic cells of origin.

HeLa cells = assay: CellTiter-Glo counter-screen, HeLa; settings: Homo sapiens, cancer cells
Experimental: as §5, §3, §4

[3] = CellTiter-Glo counter-screen, hepatocytes; settings: human, human embryonic stem cell-derived hepatocytes (Cellartis), read-out: Inhibition (%) ES-derived hepatocytes
Experimental: Human embryonic stem cell-derived hepatocytes were obtained from Cellartis (Goteborg, Sweden), and handled according to the manufacturer's instructions;
as §3, §4

[4] = test system: H9 human embryonic stem cells; assay: CellTiter-Glo luminescent cell viability screen, H9; settings: pluripotent stem cells
Experimental: as §1
The compounds identified as hits from the primary screen were retested at a concentration of 20 μM against three pluripotent stem cell lines (CSES2, H9 and CSES2-SO2/3) for confirmation screens.
as §2

[5] = test system: ES-derived mesenchymal stem cells; assay: CellTiter-Glo counter-screen, mesenchymal stem cells; settings: Homo sapiens, at 20 μM (table title)
[6] = test system: iPS-derived cardiomyocytes; assay: CellTiter-Glo counter-screen, cardiomyocytes; settings: Homo sapiens, Cardiomyocyte
Experimental: Human induced pluripotent stem cell-derived cardiomyocytes were obtained from Cellular Dynamics International (Madison, Wis.), and handled according to the manufacturer's instructions;
as §3, §4

Row | SMILES | EC50 [1] | inhibition at 20 µM [1] | inhibition at 20 µM (Huh7 cells) | inhibition at 20 µM [2] | EC50 (BJ-fibroblasts) | inhibition at 20 µM (BJ-fibroblasts) | inhibition at 20 µM (HeLa cells) | inhibition at 20 µM [3] | inhibition at 20 µM [4] | inhibition at 12.5 µM [5] | inhibition at 20 µM [6]
1 | O=C(NNc1ccccc1)c1ccncc1 [PluriSIn #1, isonicotinic acid N′-phenylhydrazide] | 2.39 µM | 85.4% | 5.8% | -2% | > 50 µM | -8.8% | 5.7% | 16.2% | 88.6% | -4.9% | 15%
2 | O=C(Nc1ccccc1)n1cc(F)c(=O)[nH]c1=O [PluriSIn #2] | 6.96 µM | 56.8% | -0.2% | 3% | > 50 µM | -8.3% | -2.1% | 13.2% | 65.4% | -1.4% | 4.4%
3 | Nc1cc(N)cc(COc2ccc(-c3ccccc3)cc2)c1 [PluriSIn #3] | 1.68 µM | 81.1% | -5.9% | 2.3% | > 50 µM | -25.4% | -4.2% | 2.8% | 110% | 3.3% | -2.9%
4 | O=C(NCCc1ccc(O)cc1)c1ccc(N2CCCCC2)cc1 [PluriSIn #4] | 0.75 µM | 74.8% | 12.1% | 9.4% | > 50 µM | -22.9% | 2.2% | 10.5% | 74.1% | -8.1% | 14.1%
5 | O=S(=O)(NNc1ccccc1)c1ccc2ccccc2c1 [PluriSIn #5] | 1.52 µM | 87.9% | 3.6% | 0.2% | > 50 µM | -7.5% | -0.6% | 0.3% | 82.2% | 6.4% | 3.1%
6 | Cc1ccc(NNC(=O)C(O)(c2ccccc2)c2cccs2)cc1 (centres unmarked) [PluriSIn #6, 2-hydroxy-2-(thiophen-2-yl)-2-phenylacetic acid 4-methyl-N′-phenylhydrazide] | 2.26 µM | 83.3% | 4.6% | 1.8% | > 50 µM | 15.9% | 2.6% | -5.2% | 90.1% | -19.7% | 2.6%
7 | CC(=O)Oc1ccc(/C=C/c2ccc3c(c2)CCN3C)cc1 [PluriSIn #7] | 2.13 µM | 89% | 11.2% | 26.7% | > 50 µM | -9.7% | -3.6% | 15.3% | 109% | 35.8% | 6.8%
8 | Cc1oc2ccccc2c1/C=N/Nc1ccccc1 [PluriSIn #8] | 1.69 µM | 82.2% | 10.9% | -1% | > 50 µM | -10.3% | 14.3% | 14.6% | 85.5% | -33.8% | 8.9%
9 | C/C(=N\O)NNc1ccc(Cl)cc1 [PluriSIn #9] | 3.42 µM | 92.3% | 10.4% | 6% | > 50 µM | -22.7% | -0.7% | 6.1% | 101% | -12.6% | 24.7%
10 | CCCCCC(=O)NNc1ccc(Cl)cc1 [PluriSIn #10] | 2.43 µM | 87.4% | 9.3% | 5.7% | > 50 µM | -20.1% | 3% | 3.6% | 88% | 3.9% | 12.6%
11 | CCOC(=O)CN1CC(=O)/C(=C\NNc2ccccc2)C1=O [PluriSIn #11] | 3.12 µM | 90.6% | 7% | 3.3% | > 50 µM | -19.3% | -0.7% | -4.7% | 94% | 6% | -5.8%
12 | CCN(CC)C(=O)C(=O)c1c(-c2ccccc2)[nH]c2c1sc1ccccc12 [PluriSIn #12] | 5.4 µM | 83.4% | -1% | -0.9% | > 50 µM | -8.4% | 15.2% | -3.9% | 95.8% | -7.3% | -3.3%
13 | O=C1C=CC=C1/C=C/C(=N\Nc1ccccc1)c1ccccc1 [PluriSIn #13] | 1.51 µM | 94.4% | 11.8% | 17.5% | > 50 µM | -15.4% | 0% | 13.4% | 101% | -7.3% | 22.9%
